# Assay results taken from patent publication US8927728B2, “Dipeptide acetylene conjugates and a method for photocleavage of double strand DNA by dipeptide acetylene conjugates” (The Florida State University Research Foundation, Inc., priority 2011, dated 2015).
# Structures can show the parent of a compound that is named as a salt. Marks after values point to notes of the source that are not given here.
# Tests used:
# [1] = Fluorescence quenching by triethylamine (Stern-Volmer); format: physicochemical; settings: Et3N as a quencher; determined from Ksv and singlet lifetime
# Method: The fluorescence quenching by triethylamine (Et3N) was tested in order to gauge relative efficiencies of these compounds as DNA photo-oxidizers. […] The measured singlet lifetimes allowed us to determine the quenching rate constant, kq, which in this system, should be very close in magnitude to the rate of electron transfer, kET. The 2-3-fold increase in the rate of electron transfer from Et3N to excited singlet state of the meta- and ortho-isomers in comparison to the para-isomer is consistent with the well-known photochemical ortho, meta effect of an acceptor substituent. See Zimmerman, H. E., The Meta Effect in Organic Photochemistry: Mechanistic and Exploratory Organic Photochemistry, J. Am. Chem. Soc., 1995, 117, 8988-8991. doi: 10.1021/ja00140a014 and Zimmerman, H. E.; Alabugin, I. V. J. Am. Chem. Soc. 2001, […]. doi: 10.1021/ja002402c.
# [2] = tested on: pBR322 plasmid DNA; assay: Plasmid relaxation assay for DNA photocleavage; format: biochemical; settings: 30 μM/base pair pBR322, pH 6, 7 and 8; for DNA cleavage efficiency: 15 μM lysine conjugate
# Method: The present invention is additionally directed to methods of forming a double strand cleavage in DNA, wherein compounds having the above Structures are contacted with and bind to double stranded DNA. The pH-dependency of DNA-cleavage of the two bis-lysine conjugates was investigated. The top of FIGS. 6A and 6B depicts the results of the plasmid relaxation assay for DNA photocleavage with 15 μM of acetylenic conjugates (3) (FIG. 6A) and (5) (FIG. 6B) and […] (b.p.) of pBR322 plasmid DNA at pH range of 6-9 after 10 min. of UV (>310 nm) irradiation. The bottom of each of FIGS. 6A and 6B are graphs of quantified cleavage data as a function of pH for conjugates (3) (FIG. 6A) and (5) (FIG. 6B). The reported values represent the average of three experiments. Code: Form I, diamond; Form II, square; Form III, triangle.
# The plasmid relaxation assay experiments were carried out on 15 μM of lysine conjugate with 30 μM/base pair of pBR322 plasmid DNA at pH 6, 7 and 8.
# Plasmid DNA Photocleavage. pBR322 plasmid DNA (4,361 bp; from BioLabs Inc., 1 μg/μL solution in 10 mM Tris-HCl (pH 8.0), and 1mM EDTA buffer) was diluted to a concentration of 0.01 μg/μL. The solution containing cleavage agent, DNA (30 μM/bp) in 20 mM sodium phosphate buffer was incubated for 1 hour at 30° C. Samples were placed on ice at a distance of 20 cm from 200 W Hg—Xe lamp (Spectra-Physics, Laser & Photonics Oriel Instruments with long pass filter with 300 nm cut-on wavelength).
# Electrophoretic Analysis. The gel electrophoresis was carried out in lx TBE buffer at 80 V using Miligel FisherBiotech Horizontal Electrophoresis System. All gels were run on 1% agarose slab gels. Before loading, the DNA samples were mixed with 0.33 volume of tracking dye containing bromophenol blue (0.25%) and glycerol (30%) in water. After staining in ethidium bromide solution (2 μg/mL) for 1 hour, the gel was washed with water and pictures were taken. The relative quantities of the supercoiled, nicked, and linear DNA were calculated by integrating the “area” of each spot by the image analyzer software Total/Lab (Nonlinear Dynamics Ltd., UK). […]
# [3] = tested on: A375 cells (Human Melanoma); assay: Cell proliferation (MTT) assay; format: cell-based; settings: A375, after 10 min UV irradiation at 360 nm
# Method: The ability of compounds (15), (16), and (17) to inhibit cell proliferation in human melanoma cell lines was tested in the dark and under photoactivation. See FIGS. 9A and 9B, which depict cell proliferation assays in A375 cells (Human Melanoma) exposed to bis-lysine conjugates (15) (square), (16) (up-pointing triangle) and (17) (down-pointing triangle) in dark (FIG. 9A) and after 10 min. of UV (360 nm) irradiation (FIG. 9B).
# MTT Assay. A375 cells were seeded at 2000 cells per well in a 96-well plate. Seven 2-fold serial dilutions of the compounds were added to the cells in triplicate. Concentrations were from 1 to 0.016 μM of compounds. After 4 hs of incubation with the compounds, cells were UV-irradiated for ten minutes at 365 nm (UV transluminator, Spectronomics Corp. model TR-365R). After 72hs of incubation, MTT (Sigma® cat#M2128) was added to cells to a final concentration of 1.25 mg/mL and incubated for 60 minutes. Cells were centrifuged at 900 g for 5 minutes at room temperature. Media was replaced with DMSO and absorbance will be measured in a plate reader at 570 nm.
# [4] = from Carey, Organic Chemistry, 6th ed.; cited from earlier work
# [5] = tested on: DNA; settings: literature value; cited from earlier work
compound,measurement,setting,value
"CC(=O)Nc1ccc(C#Cc2c(F)c(F)nc(F)c2F)cc1 [(3) (para), N-(4-((Perfluoropyridin-4-yl)ethynyl)phenyl)acetamide]",kq (quenching rate constant),[1],5.64e+09 M⁻¹ s⁻¹
"CC(=O)Nc1cccc(C#Cc2c(F)c(F)nc(F)c2F)c1 [(4) (meta), N-(3-((Perfluoropyridin-4-yl)ethynyl)phenyl)acetamide]",kq (quenching rate constant),[1],1.36e+10 M⁻¹ s⁻¹
"CC(=O)Nc1ccccc1C#Cc1c(F)c(F)nc(F)c1F [(5) (ortho), N-(2-((Perfluoropyridin-4-yl)ethynyl)phenyl) acetamide]",kq (quenching rate constant),[1],1.43e+10 M⁻¹ s⁻¹
"NCCCC[C@H](N)C(=O)Nc1cccc(C#Cc2c(F)c(F)nc(F)c2F)c1 [(16), (S)-2,6-Diamino-N-(3-((perfluoropyridin-4-yl)ethynyl)phenyl)hexanamide Dihydrochloride]",DNA cleavage efficiency,[2],less DNA cleavage than conjugate (15)
"NCCCC[C@H](N)C(=O)Nc1ccccc1C#Cc1c(F)c(F)nc(F)c1F [(17), (S)-2,6-Diamino-N-(2-((perfluoropyridin-4-yl)ethynyl)phenyl)hexanamide Dihydrochloride]",phototoxicity,[3],some phototoxicity
same,DNA cleavage efficiency,[2],least efficient DNA cleavage
same,double-strand breaks,[2]; 15 μM,has not produced any double-strand breaks
NCCCC[C@H](N)C(=O)O [Lysine],pKa1,[4],8.95^b
same,pKa2,[4],10.53^b
calicheamicin,double strand breaks formed,[5],25-33%
